Assay results reported in ChEMBL document CHEMBL1148880, “Development of piperazine-tethered heterodimers as potent antimalarials against chloroquine-resistant P. falciparum strains. Synthesis and molecular modeling” (Bioorg Med Chem Lett, 2007).

What was measured:
Type in all cases: functional, organism-based
Plasmodium falciparum [1] = test: Antiplasmodial activity against chloroquine-sensitive Plasmodium falciparum D10
Plasmodium falciparum [2] = test: Antiplasmodial activity against chloroquine-resistant Plasmodium falciparum K1
Plasmodium falciparum [3] = test: Antiplasmodial activity against chloroquine-sensitive Plasmodium falciparum 3D7
Plasmodium falciparum [4] = test: Antiplasmodial activity against chloroquine-resistant Plasmodium falciparum W2

Row | SMILES | IC50 (Plasmodium falciparum [1]) [µM] | IC50 (Plasmodium falciparum [2]) [µM] | IC50 (Plasmodium falciparum [3]) [µM] | IC50 (Plasmodium falciparum [4]) [µM]
1 | CS(=O)(=O)OC(c1ccc(CNCCCN2CCN(CCC/N=c3\cc[nH]c4cc(Cl)ccc34)CC2)cc1)c1cccc(Cl)c1 (stereo not drawn) | 110 | 447 | 7.8 | 98
2 | O=C(NCCCN1CCN(CCC/N=c2\cc[nH]c3cc(Cl)ccc23)CC1)C(c1cccc(Cl)c1)n1ccnc1 (stereo not drawn) | 221 | 200 | 40 | 540
3 | Clc1ccc2/c(=N/CCCN3CCN(CCCNCC4N=CC=N4)CC3)cc[nH]c2c1 | 1610 | – | – | 1440
4 | O=C(c1ccc(CNCCCN2CCN(CCC/N=c3\cc[nH]c4cc(Cl)ccc34)CC2)cc1)c1cccc(Cl)c1 | 26 | 16 | 1.6 | 33
5 | Clc1ccc2/c(=N/CCCN3CCN(CCCNc4nc5ccccc5[nH]4)CC3)cc[nH]c2c1 | 407 | – | – | 535
6 | OC(c1ccc(CNCCCN2CCN(CCC/N=c3\cc[nH]c4cc(Cl)ccc34)CC2)cc1)c1cccc(Cl)c1 (stereo not drawn) | 145 | 135 | 28 | 269
7 | CCN(CC)CCCC(C)NC1CC=Nc2cc(Cl)ccc21 (stereo not drawn) | 22 | 260 | 10 | 280
8 | Clc1ccc2/c(=N/CCCN3CCN(CCCNCc4ccc(CN5CCCC5)cc4)CC3)cc[nH]c2c1 | 260 | – | – | 207
9 | Clc1cccc(C(NCCCN2CCN(CCC/N=c3\cc[nH]c4cc(Cl)ccc34)CC2)c2ccc(CN3CCCC3)cc2)c1 (stereo not drawn) | 663 | – | – | 495
